{"source": "paper PMC12010937", "about": "“Evaluation of FXR Activity in Pollutants Identified in Sewage Sludge and Subsequent in Vitro and in Vivo Characterization of Metabolic Effects of Triphenyl Phosphate” (Environmental Health Perspectives, 2025)", "key": {"[1]": {"molecular_target": "T1, human FXR-LBD (GST-FXR-LBD) (Homo sapiens, UniProt Q96RI1)", "T1 construct": "the human FXR-LBD (residues 234–472) was expressed as a GST fusion protein GST-FXR-LBD; made in house; host or cells: E. coli BL21(DE3)", "T1 sequence (Q96RI1 234-472 isoform Q96RI1-2)": "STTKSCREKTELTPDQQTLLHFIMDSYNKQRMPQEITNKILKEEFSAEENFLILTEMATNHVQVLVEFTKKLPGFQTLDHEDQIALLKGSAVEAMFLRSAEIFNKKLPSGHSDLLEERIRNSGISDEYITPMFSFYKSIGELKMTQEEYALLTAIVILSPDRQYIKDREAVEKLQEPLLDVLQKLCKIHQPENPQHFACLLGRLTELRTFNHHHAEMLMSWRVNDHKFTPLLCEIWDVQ", "experiment": "HTRF coactivator recruitment assay, agonist mode", "assay_type": "biochemical"}, "PPARγ": {"tested_on": "PPARγ", "set-up": "method as in PMID 34340181", "details": "in vitro assays and in silico molecular docking; cited from earlier work"}, "PXR": {"tested_on": "PXR", "details": "in vitro assays and in silico molecular docking; cited from earlier work"}}}
{"smiles": "O=P(Oc1ccccc1)(Oc1ccccc1)Oc1ccccc1", "note": "[TPHP, triphenyl phosphate]", "values": [{"measurement": "Relative activity, agonist mode", "setting": "[1]", "value": 0.00, "unit": "%"}, {"measurement": "PPARγ activity reported (in words)", "setting": "PPARγ", "value": "agonists"}, {"measurement": "PXR activity reported (in words)", "setting": "PXR", "value": "agonists"}]}
